Results reported in US8222400B2, “Cyclodextrin compound modified with folic acid, process for production thereof, drug delivery agent for targeting drug delivery system, pharmaceutical composition, and imaging agent” (Nanodex Inc., priority 2007, dated 2012).

Legend:
[1] = molecular target: T1, folate binding proteins (FBP) (Bos taurus, UniProt P02702); experiment: SPR measurement of association with immobilized folate binding protein (FBP); conditions: each at 1.0×10^−6 M, 25.0° C.
T1 construct: purchased SIGMA
T1 sequence (P02702 20-234): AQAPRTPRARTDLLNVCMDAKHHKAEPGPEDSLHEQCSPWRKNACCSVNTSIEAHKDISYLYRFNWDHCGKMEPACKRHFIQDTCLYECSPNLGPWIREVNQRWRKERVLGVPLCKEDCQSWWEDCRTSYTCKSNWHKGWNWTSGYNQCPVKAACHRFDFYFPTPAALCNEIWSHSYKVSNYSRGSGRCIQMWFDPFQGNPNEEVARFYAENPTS
Method: Specifically, the ligand (e.g., folate-binding proteins) is immobilized on a cuvette, and the analyte (e.g., the cyclodextrin (CD) compound of the invention) that is dissolved in a buffer solution is injected into the above cuvette. Evanescent wave and surface plasmon wave excite the surface plasmon when the angle of incidence on a prism is […] the angle of total reflection. The angle of incidence is measured. The angle of incidence is changed depending on the mass within the evanescent field depth of 600 nm. The amount of the changes can be observed and refers to the response (R). This angle of incidence is proportional to the mass of the adsorbed molecule. In other words, these mass changes can indicate the interaction. The reagents used for immobilization were obtained as follows: • 1 mM BS^3 solution: 2.9 mg of Bis(sulfosuccinimidyl) suberate (BS^3) was dissolved into 5 ml of 10 mM phosphate buffer solution (pH 7.2); • a solution used for immobilization of FBP: 1 mg of FBP (manufactured by SIGMA) was dissolved into 1 ml of 10 mM phosphate buffer solution (pH 7.2). […] A saturation curve shown in FIG. 1 was obtained (measured at a temperature of 25.0° C.). […] The association characteristics of each compound that bound to FBP were evaluated.

[2] = SPR measurement of drug-inclusion association with immobilized DXR; assay type: binding; conditions: SPR linear plot, DXR-immobilized cuvette
Method: The capabilities of the CD compound of the invention were evaluated by the procedures similar to those of Experiment 7-1. An anticancer and antibiotic agent, doxorubicin (hereafter, referred to as “DXR”) was used as a drug.
Immobilization of DXR on the surface of an optical biosensor cuvette was performed by using the procedures similar to those of the above immobilization of FBP. A buffer with a different pH was used as a solvent for drugs.
An aminosilane group on the surface of the cuvette was reacted with a linker. 1 mM of the BS^3 solution/10 mM of phosphate buffer solution (pH 6.5) was used for the reaction. Then, an amino group of DXR was reacted with the other side of BS^3 linker. The steps were repeated one or more times until the response value became constant. An acetic anhydride-acetic acid solution (volume ratio 1:1) was injected into the cuvette to deactivate any remaining aminosilane groups and to block these. After the blocking, the solution was replaced by 10 mM acetic buffer (pH 5.3). The DXR solution (2 mg DXR/10 mM acetic buffer (pH5.3)) was added thereto. The reaction was carried out. […]
The kinetic behavior of the interaction of the exemplary compound 1 with DXR was measured by the procedures similar to those of Experiment 1. […]

[3] = tested on: Caco-2 tumor cells; experiment: SPR measurement of interaction with immobilized Caco-2 tumor cells; assay type: binding, human; conditions: SPR linear plot, varied concentrations, Caco-2 cells-immobilized cuvette
Method: The SPR measurements of the exemplary compound 1 that bound to human colon cancer-derived Caco-2 cells and, as comparative target cells, normal rat liver cells were conducted by using the similar foregoing procedures. Each interaction was evaluated comparatively.
Experiment 6-1: The SPR measurements of the interaction with Caco-2 tumor cells The immobilization of Caco-2 cells was performed by the procedures similar to those of Example 5 <Immobilization of FBP>. Instead of using the solution that was used for the immobilization of FBP, the solution containing a suitable amount and concentration of the solution (phosphate buffer solution (pH 7.3)+0.85% NaCl) (manufactured by CORNING) containing Caco-2 cells was used as a fixative. In addition, to the Caco-2 cells-immobilized cuvette was added 200 μl of the exemplary compound 1 ([…]) that was dissolved in the phosphate buffer solution (pH 7.3)+0.85% NaCl. The SPR measurements were then carried out.
Experiment 7-1: The measurements of the interaction with Caco-2 tumor cells The immobilization of Caco-2 cells was performed by the procedures similar to those of Example 5 <Immobilization of FBP>. […]

[4] = molecular target: folate receptor protein (FBP) overexpressed on the surface of cancer cells (Homo sapiens, UniProt P15328); conditions: from reviews (Wang and Low 1998; Low et al. 2008); cited from earlier work
Sequence of folate receptor protein (FBP) overexpressed on the surface of cancer cells (P15328 25-234): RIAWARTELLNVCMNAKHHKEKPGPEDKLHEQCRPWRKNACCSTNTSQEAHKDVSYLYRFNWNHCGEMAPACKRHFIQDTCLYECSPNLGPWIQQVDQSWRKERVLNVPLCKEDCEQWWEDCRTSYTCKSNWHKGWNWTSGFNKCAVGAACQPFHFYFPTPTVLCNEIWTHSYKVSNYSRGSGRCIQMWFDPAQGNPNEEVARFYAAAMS

OC[C@H]1O[C@@H]2O[C@H]3[C@H](O)[C@@H](O)[C@@H](O[C@H]4[C@H](O)[C@@H](O)[C@@H](O[C@H]5[C@H](O)[C@@H](O)[C@@H](O[C@H]6[C@H](O)[C@@H](O)[C@@H](O[C@H]7[C@H](O)[C@@H](O)[C@@H](O[C@H]8[C@H](O)[C@@H](O)[C@@H](O[C@H]1[C@H](O)[C@H]2O)O[C@@H]8CO)O[C@@H]7CO)O[C@@H]6CO)O[C@@H]5CO)O[C@@H]4CO)O[C@@H]3CO [unmodified β-CD, β-cyclodextrin]
Interaction with FBP (SPR response, FIG. 1) [1]: did not exhibit any interaction properties

CNC(=O)CCC(NC(=O)c1ccc(NCc2cnc3nc(N)[nH]c(=O)c3n2)cc1)C(=O)O (stereo not shown) [Comparative Compound 3]
Association constant Ka (drug DXR) [2]: 2500 M⁻¹ | Association constant Ka (receptor Caco-2) [3]: 18000 M⁻¹

Nc1nc2ncc(CNc3ccc(C(=O)N[C@@H](CCC(=O)O)C(=O)O)cc3)nc2c(=O)[nH]1 [folic acid]
Association constant for folate receptor protein (FBP) [4]: 10^10 M^−1
